# Reference: patent US9662327B2 (AGIOS PHARMACEUTICALS, INC, priority 2011, dated 2017)
# Read-outs that look alike come from different tables or passages of the source.
# Biological target: IDH1 R132H (Homo sapiens (Human), UniProt O75874, R132H)
# Assay: Assays for IDH1 R132H Inhibitors (NADPH/aKG, resazurin detection)
# Format: biochemical
# Experimental: Assays were conducted in a volume of […] assay buffer (150 mM NaCl, 10 mM MgCl2, 20 mM Tris pH 7.5, 0.03% bovine serum albumin) as follows in a standard 384-well plate: To 25 ul of substrate mix (8 uM NADPH, 2 mM aKG), 1 μl of test compound was added in DMSO. […] The reaction was incubated for 50 minutes at room temperature, then 25 μl of detection mix (30 μM resazurin, […]) was added and the mixture further incubated for 5 minutes at room temperature.
# [1] = IDH1 R132H enzyme, Table 2, read-out: IDHR132H Activity
# Chain of IDH1 R132H (O75874 whole entry R132H): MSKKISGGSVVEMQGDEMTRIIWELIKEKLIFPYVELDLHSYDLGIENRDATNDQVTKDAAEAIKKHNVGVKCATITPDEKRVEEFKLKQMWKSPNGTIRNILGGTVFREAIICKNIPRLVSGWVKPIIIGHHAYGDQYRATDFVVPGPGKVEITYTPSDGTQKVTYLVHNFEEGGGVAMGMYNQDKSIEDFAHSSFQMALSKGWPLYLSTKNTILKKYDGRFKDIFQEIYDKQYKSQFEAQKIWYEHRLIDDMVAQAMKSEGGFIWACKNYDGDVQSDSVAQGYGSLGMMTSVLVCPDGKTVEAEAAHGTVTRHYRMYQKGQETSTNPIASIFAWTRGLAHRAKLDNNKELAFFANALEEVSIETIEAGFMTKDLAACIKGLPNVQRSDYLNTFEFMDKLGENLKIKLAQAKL
Structure (SMILES),IC50 [1] [nM],IC50 [nM]
"CC1CN(c2nc(C3CC3)c3c(c2C#N)CC(C)(C)OC3)CCN1C(=O)c1ccco1 (centres unmarked) [Compound 135, 8-cyclopropyl-6-(4-(furan-2-carbonyl)-3-methylpiperazin-1-yl)-3,3-dimethyl-3,4-dihydro-1H-pyrano[3,4-c]pyridine-5-carbonitrile]",1000 to 10000,
CC1CN(c2nc(C3CC3)c3c(c2C#N)CC(C)(C)OC3)CCN1C(=O)c1ccoc1 (centres unmarked) [Compound 136],1000 to 10000,
"CC(C)c1nc(N2CCN(C(=O)c3ccco3)C(C)C2)c(C#N)c2c1COC(C)(C)C2 (centres unmarked) [Compound 137, 6-(4-(furan-2-carbonyl)-3-methylpiperazin-1-yl)-8-isopropyl-3,3-dimethyl-3,4-dihydro-1H-pyrano[3,4-c]pyridine-5-carbonitrile]",1000 to 10000,
"CC(C)c1nc(N2CCN(C(=O)c3ccoc3)C(C)C2)c(C#N)c2c1COC(C)(C)C2 (centres unmarked) [Compound 138, 6-(4-(furan-3-carbonyl)-3-methylpiperazin-1-yl)-8-isopropyl-3,3-dimethyl-3,4-dihydro-1H-pyrano[3,4-c]pyridine-5-carbonitrile]",1000 to 10000,
"CC(C)c1nc(N2CCN(C(=O)c3ccco3)[C@H](C)C2)c(C#N)c2c1COCC2 [Compound 139, (R)-6-(4-(furan-2-carbonyl)-3-methylpiperazin-1-yl)-8-isopropyl-3,4-dihydro-1H-pyrano[3,4-c]pyridine-5-carbonitrile]",1000 to 10000,
"CC(C)c1nc(N2CCN(C(=O)c3ccoc3)[C@H](C)C2)c(C#N)c2c1COCC2 [Compound 140, (R)-6-(4-(furan-3-carbonyl)-3-methylpiperazin-1-yl)-8-isopropyl-3,4-dihydro-1H-pyrano[3,4-c]pyridine-5-carbonitrile]",1000 to 10000,
"N#Cc1c(N2CCN(C(=O)C3CC3)CC2)nc(C2CCCCC2)c2c1CCOC2 [Compound 141, 8-cyclohexyl-6-(4-(cyclopropanecarbonyl)piperazin-1-yl)-3,4-dihydro-1H-pyrano[3,4-c]pyridine-5-carbonitrile]",1000 to 10000,
"CC1(C)Cc2c(C#N)c(N3CCN(C(=O)c4ccco4)CC3)nc(C3CC3)c2CO1 [Compound 142, 8-cyclopropyl-6-(4-(furan-2-carbonyl)piperazin-1-yl)-3,3-dimethyl-3,4-dihydro-1H-pyrano[3,4-c]pyridine-5-carbonitrile]",,1000 to 10000
"CC1(C)Cc2c(C#N)c(N3CCN(C(=O)c4ccoc4)C(c4ccccc4)C3)nc(C3CCCCC3)c2CO1 (centres unmarked) [Compound 143, 8-cyclohexyl-6-(4-(furan-3-carbonyl)-3-phenylpiperazin-1-yl)-3,3-dimethyl-3,4-dihydro-1H-pyrano[3,4-c]pyridine-5-carbonitrile]",1000 to 10000,
"CC(C)c1nc(N2CCN(C(=O)Cc3ccccc3)CC2)c(C#N)c2c1COC(C)(C)C2 [Compound 144, 8-isopropyl-3,3-dimethyl-6-(4-(2-phenylacetyl)piperazin-1-yl)-3,4-dihydro-1H-pyrano[3,4-c]pyridine-5-carbonitrile]",1000 to 10000,
"C[C@@H]1CN(c2nc(C3CCCC3)c3c(c2C#N)CC(C)(C)OC3)C[C@H](C)N1C(=O)c1ccoc1 [Compound 146, 8-cyclopentyl-6-((3S,5R)-4-(furan-3-carbonyl)-3,5-dimethylpiperazin-1-yl)-3,3-dimethyl-3,4-dihydro-1H-pyrano[3,4-c]pyridine-5-carbonitrile]",1000 to 10000,
"CC1CN(c2nc(C3CCCC3)c3c(c2C#N)CC(C)(C)OC3)CCN1C(=O)c1ccco1 (centres unmarked) [Compound 147, 8-cyclopentyl-6-(4-(furan-2-carbonyl)-3-methylpiperazin-1-yl)-3,3-dimethyl-3,4-dihydro-1H-pyrano[3,4-c]pyridine-5-carbonitrile]",1000 to 10000,
"CC(C)c1nc(N2CCN(C(=O)c3ccco3)[C@H](C)C2)c(C#N)c2c1COC(C)(C)C2 [Compound 148, (R)-6-(4-(furan-2-carbonyl)-3-methylpiperazin-1-yl)-8-isopropyl-3,3-dimethyl-3,4-dihydro-1H-pyrano[3,4-c]pyridine-5-carbonitrile]",1000 to 10000,
"CC(C)c1nc(N2CCN(C(=O)c3ccoc3)[C@H](C)C2)c(C#N)c2c1COC(C)(C)C2 [Compound 149, (R)-6-(4-(furan-3-carbonyl)-3-methylpiperazin-1-yl)-8-isopropyl-3,3-dimethyl-3,4-dihydro-1H-pyrano[3,4-c]pyridine-5-carbonitrile]",1000 to 10000,
"C[C@@H]1CN(c2nc(C3CCCCC3)c3c(c2C#N)CC(C)(C)OC3)CCN1C(=O)c1ccco1 [Compound 150, (R)-8-cyclohexyl-6-(4-(furan-2-carbonyl)-3-methylpiperazin-1-yl)-3,3-dimethyl-3,4-dihydro-1H-pyrano[3,4-c]pyridine-5-carbonitrile]",1000 to 10000,
"C[C@@H]1CN(c2nc(C3CCCCC3)c3c(c2C#N)CC(C)(C)OC3)CCN1C(=O)c1ccoc1 [Compound 151, (R)-8-cyclohexyl-6-(4-(furan-3-carbonyl)-3-methylpiperazin-1-yl)-3,3-dimethyl-3,4-dihydro-1H-pyrano[3,4-c]pyridine-5-carbonitrile]",1000 to 10000,
"C[C@@H]1CN(c2nc(C3CCCCC3)c3c(c2C#N)CC(C)(C)OC3)CCN1C(=O)Cc1ccccc1 [Compound 152, (R)-8-cyclohexyl-3,3-dimethyl-6-(3-methyl-4-(2-phenylacetyl)piperazin-1-yl)-3,4-dihydro-1H-pyrano[3,4-c]pyridine-5-carbonitrile]",1000 to 10000,
"C[C@@H]1CN(c2nc(C3CCCCC3)c3c(c2C#N)CC(C)(C)OC3)CCN1C(=O)Cc1cccs1 [Compound 153, (R)-8-cyclohexyl-3,3-dimethyl-6-(3-methyl-4-(2-(thiophen-2-yl)acetyl)piperazin-1-yl)-3,4-dihydro-1H-pyrano[3,4-c]pyridine-5-carbonitrile]",1000 to 10000,
"CC(C)c1nc(N2CCN(C(=O)c3ccco3)C(c3ccccc3)C2)c(C#N)c2c1COC(C)(C)C2 (centres unmarked) [Compound 154, 6-(4-(furan-2-carbonyl)-3-phenylpiperazin-1-yl)-8-isopropyl-3,3-dimethyl-3,4-dihydro-1H-pyrano[3,4-c]pyridine-5-carbonitrile]",500 to 1000,
"CC(C)c1nc(N2CCN(C(=O)c3ccoc3)C(c3ccccc3)C2)c(C#N)c2c1COC(C)(C)C2 (centres unmarked) [Compound 155, 6-(4-(furan-3-carbonyl)-3-phenylpiperazin-1-yl)-8-isopropyl-3,3-dimethyl-3,4-dihydro-1H-pyrano[3,4-c]pyridine-5-carbonitrile]",1000 to 10000,
CC1(C)Cc2c(C#N)c(N3CCN(C(=O)c4ccoc4)C(c4ccccc4)C3)nc(C3CC3)c2CO1 (centres unmarked) [Compound 156],1000 to 10000,
"CC(C)c1nc(N2CCN(C(=O)C(=O)c3ccccc3)[C@H](C)C2)c(C#N)c2c1COC(C)(C)C2 [Compound 157, (R)-8-isopropyl-3,3-dimethyl-6-(3-methyl-4-(2-oxo-2-phenylacetyl)piperazin-1-yl)-3,4-dihydro-1H-pyrano[3,4-c]pyridine-5-carbonitrile]",1000 to 10000,
"CC(C)c1nc(N2CCN(C(=O)Cc3cccs3)[C@H](C)C2)c(C#N)c2c1COC(C)(C)C2 [Compound 158, (R)-8-isopropyl-3,3-dimethyl-6-(3-methyl-4-(2-(thiophen-2-yl)acetyl)piperazin-1-yl)-3,4-dihydro-1H-pyrano[3,4-c]pyridine-5-carbonitrile]",500 to 1000,
